{
  "source": "paper PMC4441267",
  "assay": "CuAAC macrocyclisation of azide/terminal alkyne linear peptidomimetics to 1,4-triazole (CuI 2 eq, DIPEA 3 eq, Ar-degassed), then Boc removal (TMSCl/MeOH GP4; HCl/dioxane GP5 for A13w, J13w)",
  "settings": "THF (reflux), 1.2 mM, 66.0 °C, 18.0 h, 2 steps",
  "data": [
    {"molecule": "COC(=O)[C@@H]1CNC(=O)[C@H](Cc2ccccc2)n2cc(nn2)CCCC(=O)NC[C@H](NC(=O)OC(C)(C)C)C(=O)N1", "note": "[Boc-Dap(5-hexynoyl)-Dap(N3-Phe)-OMe]", "values": [
      {"measurement": "ring closure, yield over several steps", "setting": "from C#CCCCC(=O)NC[C@H](NC(=O)OC(C)(C)C)C(=O)N[C@@H](CNC(=O)[C@H](Cc1ccccc1)N=[N+]=[N-])C(=O)OC, 17-membered ring", "value": 99, "unit": "%"}
    ]},
    {"molecule": "COC(=O)[C@@H]1CCCCNC(=O)[C@H](Cc2ccccc2)n2cc(nn2)CCCC(=O)NC[C@H](NC(=O)OC(C)(C)C)C(=O)N1", "note": "[Boc-Dap(5-hexynoyl)-Lys(N3-Phe)-OMe]", "values": [
      {"measurement": "ring closure, yield over several steps", "setting": "from C#CCCCC(=O)NC[C@H](NC(=O)OC(C)(C)C)C(=O)N[C@@H](CCCCNC(=O)[C@H](Cc1ccccc1)N=[N+]=[N-])C(=O)OC, 20-membered ring", "value": 99, "unit": "%"}
    ]},
    {"molecule": "COC(=O)[C@@H]1CCCn2cc(nn2)CCCC(=O)NC[C@H](NC(=O)OC(C)(C)C)C(=O)N1", "note": "[Boc-Dap(5-hexynoyl)-Orn(N3)-OMe]", "values": [
      {"measurement": "ring closure, yield over several steps", "setting": "from C#CCCCC(=O)NC[C@H](NC(=O)OC(C)(C)C)C(=O)N[C@@H](CCCN=[N+]=[N-])C(=O)OC, 16-membered ring", "value": 52, "unit": "%"}
    ]},
    {"molecule": "COC(=O)[C@@H]1CNC(=O)[C@H](Cc2ccccc2)n2cc(nn2)CNC(=O)NC[C@H](NC(=O)OC(C)(C)C)C(=O)N1", "note": "[Boc-Dap(CONH-propargyl)-Dap(N3-Phe)-OMe]", "values": [
      {"measurement": "ring closure, yield over several steps", "setting": "from C#CCNC(=O)NC[C@H](NC(=O)OC(C)(C)C)C(=O)N[C@@H](CNC(=O)[C@H](Cc1ccccc1)N=[N+]=[N-])C(=O)OC, 16-membered ring", "value": 99, "unit": "%"}
    ]},
    {"molecule": "COC(=O)[C@@H]1CCCn2cc(nn2)CNC(=O)NC[C@H](NC(=O)OC(C)(C)C)C(=O)N[C@H](C(=O)OC)CCC(=O)N1", "note": "[Boc-Dap(CONH-propargyl)-Glu(gamma-Orn(N3)-OMe)-OMe]", "values": [
      {"measurement": "ring closure, yield over several steps", "setting": "from C#CCNC(=O)NC[C@H](NC(=O)OC(C)(C)C)C(=O)N[C@@H](CCC(=O)N[C@@H](CCCN=[N+]=[N-])C(=O)OC)C(=O)OC, 20-membered ring", "value": 78, "unit": "%"}
    ]},
    {"molecule": "COC(=O)[C@@H]1CCCCn2cc(nn2)CNC(=O)NC[C@H](NC(=O)OC(C)(C)C)C(=O)N1", "note": "[Boc-Dap(CONH-propargyl)-Lys(N3)-OMe]", "values": [
      {"measurement": "ring closure, yield over several steps", "setting": "from C#CCNC(=O)NC[C@H](NC(=O)OC(C)(C)C)C(=O)N[C@@H](CCCCN=[N+]=[N-])C(=O)OC, 16-membered ring", "value": 56, "unit": "%"}
    ]},
    {"molecule": "COC(=O)[C@@H]1CCCCNC(=O)[C@H](Cc2ccccc2)n2cc(nn2)CNC(=O)NC[C@H](NC(=O)OC(C)(C)C)C(=O)N1", "note": "[Boc-Dap(CONH-propargyl)-Lys(N3-Phe)-OMe]", "values": [
      {"measurement": "ring closure, yield over several steps", "setting": "from C#CCNC(=O)NC[C@H](NC(=O)OC(C)(C)C)C(=O)N[C@@H](CCCCNC(=O)[C@H](Cc1ccccc1)N=[N+]=[N-])C(=O)OC, 19-membered ring", "value": 99, "unit": "%"}
    ]},
    {"molecule": "COC(=O)[C@@H]1CNC(=O)[C@H](Cc2ccccc2)n2cc(nn2)CCC(=O)NCCCC[C@H](NC(=O)OC(C)(C)C)C(=O)N1", "note": "[Boc-Lys(4-pentynoyl)-Dap(N3-Phe)-OMe]", "values": [
      {"measurement": "ring closure, yield over several steps", "setting": "from C#CCCC(=O)NCCCC[C@H](NC(=O)OC(C)(C)C)C(=O)N[C@@H](CNC(=O)[C@H](Cc1ccccc1)N=[N+]=[N-])C(=O)OC, 19-membered ring", "value": 98, "unit": "%"}
    ]},
    {"molecule": "COC(=O)[C@@H]1CCCn2cc(nn2)CCC(=O)NCCCC[C@H](NC(=O)OC(C)(C)C)C(=O)N[C@H](C(=O)OC)CCC(=O)N1", "note": "[Boc-Lys(4-pentynoyl)-Glu(gamma-Orn(N3)-OMe)-OMe]", "values": [
      {"measurement": "ring closure, yield over several steps", "setting": "from C#CCCC(=O)NCCCC[C@H](NC(=O)OC(C)(C)C)C(=O)N[C@@H](CCC(=O)N[C@@H](CCCN=[N+]=[N-])C(=O)OC)C(=O)OC, 23-membered ring", "value": 86, "unit": "%"}
    ]},
    {"molecule": "COC(=O)[C@@H]1CCCCn2cc(nn2)CCC(=O)NCCCC[C@H](NC(=O)OC(C)(C)C)C(=O)N1", "note": "[Boc-Lys(4-pentynoyl)-Lys(N3)-OMe]", "values": [
      {"measurement": "ring closure, yield over several steps", "setting": "from C#CCCC(=O)NCCCC[C@H](NC(=O)OC(C)(C)C)C(=O)N[C@@H](CCCCN=[N+]=[N-])C(=O)OC, 19-membered ring", "value": 30, "unit": "%"}
    ]},
    {"molecule": "COC(=O)[C@@H]1CCCn2cc(nn2)CCC(=O)NCCCC[C@H](NC(=O)OC(C)(C)C)C(=O)N1", "note": "[Boc-Lys(4-pentynoyl)-Orn(N3)-OMe]", "values": [
      {"measurement": "ring closure, yield over several steps", "setting": "from C#CCCC(=O)NCCCC[C@H](NC(=O)OC(C)(C)C)C(=O)N[C@@H](CCCN=[N+]=[N-])C(=O)OC, 18-membered ring", "value": 99, "unit": "%"}
    ]},
    {"molecule": "COC(=O)[C@@H]1CNC(=O)[C@H](Cc2ccccc2)n2cc(nn2)CCCC(=O)NCCCC[C@H](NC(=O)OC(C)(C)C)C(=O)N1", "note": "[Boc-Lys(5-hexynoyl)-Dap(N3-Phe)-OMe]", "values": [
      {"measurement": "ring closure, yield over several steps", "setting": "from C#CCCCC(=O)NCCCC[C@H](NC(=O)OC(C)(C)C)C(=O)N[C@@H](CNC(=O)[C@H](Cc1ccccc1)N=[N+]=[N-])C(=O)OC, 20-membered ring", "value": 61, "unit": "%"}
    ]},
    {"molecule": "COC(=O)[C@@H]1CCCCn2cc(nn2)CCCC(=O)NCCCC[C@H](NC(=O)OC(C)(C)C)C(=O)N1", "note": "[Boc-Lys(5-hexynoyl)-Lys(N3)-OMe]", "values": [
      {"measurement": "ring closure, yield over several steps", "setting": "from C#CCCCC(=O)NCCCC[C@H](NC(=O)OC(C)(C)C)C(=O)N[C@@H](CCCCN=[N+]=[N-])C(=O)OC, 20-membered ring", "value": 98, "unit": "%"}
    ]},
    {"molecule": "COC(=O)[C@@H]1CCCCNC(=O)[C@H](Cc2ccccc2)n2cc(nn2)CCCC(=O)NCCCC[C@H](NC(=O)OC(C)(C)C)C(=O)N1", "note": "[Boc-Lys(5-hexynoyl)-Lys(N3-Phe)-OMe]", "values": [
      {"measurement": "ring closure, yield over several steps", "setting": "from C#CCCCC(=O)NCCCC[C@H](NC(=O)OC(C)(C)C)C(=O)N[C@@H](CCCCNC(=O)[C@H](Cc1ccccc1)N=[N+]=[N-])C(=O)OC, 23-membered ring", "value": 54, "unit": "%"}
    ]},
    {"molecule": "COC(=O)[C@@H]1CCCn2cc(nn2)CCCC(=O)NCCCC[C@H](NC(=O)OC(C)(C)C)C(=O)N1", "note": "[Boc-Lys(5-hexynoyl)-Orn(N3)-OMe]", "values": [
      {"measurement": "ring closure, yield over several steps", "setting": "from C#CCCCC(=O)NCCCC[C@H](NC(=O)OC(C)(C)C)C(=O)N[C@@H](CCCN=[N+]=[N-])C(=O)OC, 19-membered ring", "value": 40, "unit": "%"}
    ]},
    {"molecule": "COC(=O)[C@@H]1CNC(=O)[C@H](Cc2ccccc2)n2cc(nn2)CNC(=O)NCCCC[C@H](NC(=O)OC(C)(C)C)C(=O)N1", "note": "[Boc-Lys(CONH-propargyl)-Dap(N3-Phe)-OMe]", "values": [
      {"measurement": "ring closure, yield over several steps", "setting": "from C#CCNC(=O)NCCCC[C@H](NC(=O)OC(C)(C)C)C(=O)N[C@@H](CNC(=O)[C@H](Cc1ccccc1)N=[N+]=[N-])C(=O)OC, 19-membered ring", "value": 70, "unit": "%"}
    ]},
    {"molecule": "COC(=O)[C@@H]1CCCCNC(=O)[C@H](Cc2ccccc2)n2cc(nn2)CNC(=O)NCCCC[C@H](NC(=O)OC(C)(C)C)C(=O)N1", "note": "[Boc-Lys(CONH-propargyl)-Lys(N3-Phe)-OMe]", "values": [
      {"measurement": "ring closure, yield over several steps", "setting": "from C#CCNC(=O)NCCCC[C@H](NC(=O)OC(C)(C)C)C(=O)N[C@@H](CCCCNC(=O)[C@H](Cc1ccccc1)N=[N+]=[N-])C(=O)OC, 22-membered ring", "value": 99, "unit": "%"}
    ]},
    {"molecule": "COC(=O)[C@@H]1CCCn2cc(nn2)CNC(=O)NCCCC[C@H](NC(=O)OC(C)(C)C)C(=O)N1", "note": "[Boc-Lys(CONH-propargyl)-Orn(N3)-OMe]", "values": [
      {"measurement": "ring closure, yield over several steps", "setting": "from C#CCNC(=O)NCCCC[C@H](NC(=O)OC(C)(C)C)C(=O)N[C@@H](CCCN=[N+]=[N-])C(=O)OC, 18-membered ring", "value": 93, "unit": "%"}
    ]},
    {"molecule": "COC(=O)[C@@H]1CNC(=O)[C@H](Cc2ccccc2)n2cc(nn2)CCC(=O)NCCC[C@H](NC(=O)OC(C)(C)C)C(=O)N1", "note": "[Boc-Orn(4-pentynoyl)-Dap(N3-Phe)-OMe]", "values": [
      {"measurement": "ring closure, yield over several steps", "setting": "from C#CCCC(=O)NCCC[C@H](NC(=O)OC(C)(C)C)C(=O)N[C@@H](CNC(=O)[C@H](Cc1ccccc1)N=[N+]=[N-])C(=O)OC, 18-membered ring", "value": 45, "unit": "%"}
    ]},
    {"molecule": "COC(=O)[C@@H]1CCCCn2cc(nn2)CCC(=O)NCCC[C@H](NC(=O)OC(C)(C)C)C(=O)N1", "note": "[Boc-Orn(4-pentynoyl)-Lys(N3)-OMe]", "values": [
      {"measurement": "ring closure, yield over several steps", "setting": "from C#CCCC(=O)NCCC[C@H](NC(=O)OC(C)(C)C)C(=O)N[C@@H](CCCCN=[N+]=[N-])C(=O)OC, 18-membered ring", "value": 93, "unit": "%"}
    ]},
    {"molecule": "COC(=O)[C@@H]1CCCCNC(=O)[C@H](Cc2ccccc2)n2cc(nn2)CCC(=O)NCCC[C@H](NC(=O)OC(C)(C)C)C(=O)N1", "note": "[Boc-Orn(4-pentynoyl)-Lys(N3-Phe)-OMe]", "values": [
      {"measurement": "ring closure, yield over several steps", "setting": "from C#CCCC(=O)NCCC[C@H](NC(=O)OC(C)(C)C)C(=O)N[C@@H](CCCCNC(=O)[C@H](Cc1ccccc1)N=[N+]=[N-])C(=O)OC, 21-membered ring", "value": 88, "unit": "%"}
    ]},
    {"molecule": "COC(=O)[C@@H]1CCCn2cc(nn2)CCC(=O)NCCC[C@H](NC(=O)OC(C)(C)C)C(=O)N1", "note": "[Boc-Orn(4-pentynoyl)-Orn(N3)-OMe]", "values": [
      {"measurement": "ring closure, yield over several steps", "setting": "from C#CCCC(=O)NCCC[C@H](NC(=O)OC(C)(C)C)C(=O)N[C@@H](CCCN=[N+]=[N-])C(=O)OC, 17-membered ring", "value": 85, "unit": "%"}
    ]},
    {"molecule": "COC(=O)[C@@H]1CNC(=O)[C@H](Cc2ccccc2)n2cc(nn2)CCCC(=O)NCCC[C@H](NC(=O)OC(C)(C)C)C(=O)N1", "note": "[Boc-Orn(5-hexynoyl)-Dap(N3-Phe)-OMe]", "values": [
      {"measurement": "ring closure, yield over several steps", "setting": "from C#CCCCC(=O)NCCC[C@H](NC(=O)OC(C)(C)C)C(=O)N[C@@H](CNC(=O)[C@H](Cc1ccccc1)N=[N+]=[N-])C(=O)OC, 19-membered ring", "value": 99, "unit": "%"}
    ]},
    {"molecule": "COC(=O)[C@@H]1CCCCn2cc(nn2)CCCC(=O)NCCC[C@H](NC(=O)OC(C)(C)C)C(=O)N1", "note": "[Boc-Orn(5-hexynoyl)-Lys(N3)-OMe]", "values": [
      {"measurement": "ring closure, yield over several steps", "setting": "from C#CCCCC(=O)NCCC[C@H](NC(=O)OC(C)(C)C)C(=O)N[C@@H](CCCCN=[N+]=[N-])C(=O)OC, 19-membered ring", "value": 99, "unit": "%"}
    ]}
  ]
}
